Reference: PubChem BioAssay (NCI)
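Exposure lasted 48 hours, with cells grown in 96-well plates and compounds tested at five concentrations. TGI denotes the concentration required for complete inhibition of growth.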 Where a SMILES comes first, the peptide text is derived from it. The star is where a group is joined. Boc = CC(C)(C)OC(=O)*

Legend:
Assay in all cases: inhibition of tumour cell growth, NCI panel, 48 h
COLO 205 colon = tested on: COLO 205 colon
KM12 colon = tested on: KM12 colon
HOP-92 NSCLC = tested on: HOP-92 NSCLC
CCRF-CEM leukemia = tested on: CCRF-CEM leukemia
SK-MEL-2 melanoma = tested on: SK-MEL-2 melanoma
LOX IMVI melanoma = tested on: LOX IMVI melanoma
SNB-19 CNS = tested on: SNB-19 CNS
RXF 393 renal = tested on: RXF 393 renal
IGROV1 ovarian = tested on: IGROV1 ovarian
SNB-75 CNS = tested on: SNB-75 CNS
HCT-15 colon = tested on: HCT-15 colon
K-562 leukemia = tested on: K-562 leukemia
OVCAR-4 ovarian = tested on: OVCAR-4 ovarian
HCC-2998 colon = tested on: HCC-2998 colon
SF-539 CNS = tested on: SF-539 CNS
MCF7 breast = tested on: MCF7 breast

Structure (SMILES)	TGI (COLO 205 colon) [µM]	TGI (KM12 colon) [µM]	TGI (HOP-92 NSCLC) [µM]	TGI (CCRF-CEM leukemia) [µM]	TGI (SK-MEL-2 melanoma) [µM]	TGI (LOX IMVI melanoma) [µM]	TGI (SNB-19 CNS) [µM]	TGI (RXF 393 renal) [µM]	TGI (IGROV1 ovarian) [µM]	TGI (SNB-75 CNS) [µM]	TGI (HCT-15 colon) [µM]	TGI (K-562 leukemia) [µM]	TGI (OVCAR-4 ovarian) [µM]	TGI (HCC-2998 colon) [µM]	TGI (SF-539 CNS) [µM]	TGI (MCF7 breast) [µM]
NC(=S)N/N=C/c1cn(CCCl)c2ccccc12	> 100	> 100	> 100	> 100	> 100	> 100	> 100	> 100	> 100	86	> 100	> 100	–	–	–	–
CCC1CN2CCc3cc(OC)c(OC)cc3C2CC1CC1c2cc(OC)c(OC)cc2CCN1C(=O)C(Cc1c[nH]c2ccccc12)NC(=O)OC(C)(C)C (centres undefined)	2.95	11	7.1	15.7	7.13	3.58	17.6	7.3	4.25	10.8	7.35	> 33.9	3.63	5.24	4.43	–
O=C1CCN(CCC(F)(F)C(F)(F)C(F)(F)C(F)(F)F)C(=S)N1	> 100	> 100	–	> 100	> 100	> 100	> 100	> 100	> 100	> 100	> 100	> 100	> 100	–	> 100	–
CNC(=O)CNC(=O)C(NC(=O)CNC(=O)C1CCCN1C(=O)C(C)NC(=O)C(NC(=O)OC(C)(C)C)C(C)C)C(C)C (centres undefined) (Boc-VAPGVG-NHMe; configuration not given here)	> 100	–	> 100	> 100	> 100	> 100	> 100	–	> 100	> 100	> 100	> 100	> 100	> 100	> 100	> 100
Cc1ccc(NCCO)cc1	> 100	> 100	> 100	> 100	> 100	> 100	> 100	–	> 100	> 100	> 100	> 100	> 100	–	> 100	–
CC1OC(n2ccc3ccc([N+](=O)[O-])cc32)C(O)C(O)C1O (centres undefined)	> 100	> 100	> 100	> 100	> 100	> 100	> 100	> 100	> 100	> 100	> 100	> 100	> 100	–	> 100	–
COc1ccc(/C=C2\C(=O)Nc3ccccc32)cc1OC	> 100	> 100	> 100	> 100	> 100	> 100	> 100	> 100	> 100	81.3	> 100	> 100	> 100	–	> 100	–
CC1=N/C(=C\c2ccc(N)cc2)C(=O)N1Nc1nnc(NN2C(=O)/C(=C/c3ccc(N)cc3)N=C2C)c2ccccc12	> 100	81.5	> 100	> 100	–	> 100	> 100	> 100	> 100	> 100	> 100	> 100	> 100	–	> 100	–
CCOC(=O)C(=O)N=Nc1c(O)[nH]c2ccccc12	> 100	> 100	–	> 100	> 100	> 100	> 100	> 100	> 100	> 100	> 100	> 100	> 100	> 100	–	> 100
Nc1ccc(N=Nc2ccc(-c3ccc(N=Nc4c(S(=O)(=O)O)cc5cc(S(=O)(=O)O)c(N=Nc6ccc([N+](=O)[O-])cc6)c(N)c5c4O)cc3)cc2)c2cc(S(=O)(=O)O)ccc12	> 100	> 100	> 100	> 100	> 100	> 100	> 100	> 100	> 100	> 100	> 100	> 100	> 100	> 100	> 100	–
COc1cc(/C=C(\C)c2ccc3c(c2)OCO3)cc(OC)c1OC	39.7	> 100	–	> 100	63.6	> 100	> 100	99.5	> 100	37.8	> 100	> 100	> 100	> 100	58.7	–
N#CC(NNC(=O)Cc1ccccc1)c1ccc(O)cc1 (centres undefined)	> 100	> 100	> 100	> 100	> 100	> 100	–	> 100	> 100	97.5	> 100	> 100	> 100	–	> 100	–
Nc1c2ccccc2nc2nccnc12	> 100	> 100	> 100	> 100	> 100	> 100	> 100	> 100	> 100	> 100	> 100	> 100	> 100	> 100	> 100	–
